What was measured:
[1] = target: rat brain anandamide amidohydrolase (Rattus norvegicus, UniProt P97612); experiment: biochemical
Description: Anandamide amidohydrolase was measured in rat brain or rat liver microsome fractions. The fractions (0.1 mg of protein) were prepared following the protocols of Desarnaud et al., J. Biol. Chem. 270, 6030-6035 (1995), and were incubated in 50 mM Tris-Cl (pH 7.4) at 37° C., in the presence of radiolabeled anandamide obtained from New England Nuclear, Wilmington, Del., 221 Ci/mmol), plus various concentrations of test inhibitor (0.1-100 μM). After 10 min. of incubation, the reactions were stopped with cold methanol, the radiolabeled lipids extracted with chloroform, and the organic phases brought to dryness under a stream of N2 gas. The radioactive products were then fractionated by thin-layer chromatography (solvent system: chloroform/methanol/ammonia, 90:10:1 vol/vol/vol), collected by scraping appropriate areas of the chromatography plate, and quantified by liquid scintillation counting.

[2] = target: T1, rat liver anandamide amidohydrolase (Rattus norvegicus, UniProt P97612); experiment: Anandamide amidohydrolase assay, rat liver microsome fractions; format: biochemical
T1 construct: Anandamide amidohydrolase was measured in rat brain or rat liver microsome fractions; from tissue; host or cells: rat liver microsome fractions
T1 sequence (P97612 1-579): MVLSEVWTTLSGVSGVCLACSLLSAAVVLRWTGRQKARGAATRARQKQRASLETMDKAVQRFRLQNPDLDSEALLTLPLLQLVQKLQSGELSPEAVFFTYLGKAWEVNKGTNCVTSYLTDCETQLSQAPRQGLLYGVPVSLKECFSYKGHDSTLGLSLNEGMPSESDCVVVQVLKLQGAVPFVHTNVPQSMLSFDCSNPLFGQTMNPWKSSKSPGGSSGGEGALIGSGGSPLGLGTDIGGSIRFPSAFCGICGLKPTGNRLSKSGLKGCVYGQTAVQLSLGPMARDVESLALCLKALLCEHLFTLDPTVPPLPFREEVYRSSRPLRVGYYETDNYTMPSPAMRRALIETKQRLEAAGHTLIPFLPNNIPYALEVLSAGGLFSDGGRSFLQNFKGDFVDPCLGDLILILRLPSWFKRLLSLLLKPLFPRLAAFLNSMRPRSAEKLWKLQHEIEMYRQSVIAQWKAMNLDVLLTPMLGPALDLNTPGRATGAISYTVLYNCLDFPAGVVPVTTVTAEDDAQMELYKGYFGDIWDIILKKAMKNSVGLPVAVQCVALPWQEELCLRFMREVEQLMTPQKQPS
Description: Anandamide amidohydrolase was measured in rat brain or rat liver microsome fractions. […] After 10 min. of incubation, the reactions were stopped with cold methanol, the radiolabeled lipids extracted with chloroform, and the organic phases brought to dryness under a stream of N2 gas. The radioactive products were then fractionated by thin-layer chromatography (solvent system: chloroform/methanol/ammonia, 90:10:1 vol/vol/vol), collected by scraping appropriate areas of the chromatography plate, and quantified by liquid scintillation counting.

[3] = target: T2, anandamide amidohydrolase of intact astrocytes (Rattus norvegicus, UniProt P97612); experiment: Assay in cultures of cortical astrocytes (anandamide amidohydrolase of intact cells); format: cell-based; details: rat cortical astrocyte cultures, 20 min incubation, 37° C., radiolabeled arachidonic acid or phospholipids measured; read-out: IC50, inhibition of anandamide amidohydrolase of intact astrocytes
T2 construct: endogenous in cells; host or cells: primary rat cortical astrocytes, 3 weeks in culture
T2 sequence (P97612 1-579): T1 sequence (P97612 1-579)
Description: Cultures of rat cortical astrocytes, essentially free of neurons, were prepared following the standard procedures described in Cadas et al., J. Neurosci. 16, 3934-3942 (1996), and used after 3 weeks in culture. […] The organic phases were dried, and analyzed as follows. To measure radiolabeled anandamide and arachidonic acid, the organic extracts were fractionated by silica gel G column chromatography, as described in Fontana et al., Prostaglandins Leukotrienes Essential Fatty Acids 53, 301-308 (1995). Radiolabeled anandamide and arachidonic acid were eluted from the column with a solvent system of chloroform/methanol (9:1, vol/vol), and further purified by thin-layer chromatography (solvent system of chloroform/methanol/ammonia, 80:20:1, vol/vol/vol). To measure radiolabeled phospholipids, which were formed in intact cells from the enzymatic esterification of radiolabeled arachidonic acid, the organic extracts were fractionated by thin-layer chromatography (solvent system of chloroform/methanol/ammonia/water, 65:25:4:1, vol/vol/vol/vol).

[4] = test system: uptake of radiolabeled anandamide; experiment: Uptake and intracellular level of radiolabeled anandamide in cortical astrocyte cultures; format: cell-based; details: rat cortical astrocyte cultures

IC50 [1]: 700 nM
inhibitory concentrations for liver enzyme relative to brain ([2]; liver versus brain anandamide amidohydrolase): more than 100 fold
IC50 ([2]; rat liver microsome fractions, 10 min incubation, 37° C., pH 7.4, radiolabeled anandamide, read-out: IC50, inhibition of the liver enzyme): 97 µM
IC50 [3]: 500 nM
Compound: O=C1O/C(=C/Br)CCC1c1cccc2ccccc12 (stereo not drawn) [E-6-(bromomethylene)tetrahydro-3-(1-naphthalenyl)-2H-pyrane-2-one]
inhibition of uptake of radiolabeled anandamide [4]: does not inhibit
intracellular levels of radiolabeled anandamide ([4]; in the presence of the compound): greatly increased
